Measurements reported in patent publication US20060166985A1, “Pyrrolydin-2-one derivatives as inhibitors of thrombin and factor xa” (priority 2002, published 2006).

Biological target: human Thrombin (Homo sapiens, UniProt P00734)
Experiment: In vitro assay for inhibition of Thrombin (chromogenic or fluorogenic assay)
Assay type: biochemical
Conditions: Example 2 chromogenic assay, other Examples fluorogenic assay, read-out: thrombin inhibitory Ki
Experimental: Thrombin inhibitory activity is measured by the ability to inhibit human α-thrombin in a chromogenic assay using N-p-tosyl-gly-pro-lys p-nitroanilide as the chromogenic substrate, or in a fluorogenic assay using Rhodamine 110, bis-(CBZ-L-valyl-L-prolyl-L-arginine amide) as the fluorogenic substrate.
The compound was diluted from a 10 mM stock solution in dimethylsulfoxide at appropriate concentrations. Assay was performed at room temperature using buffer consisting of: 50 mM HEPES, 150 mM NaCl, 5 mM CaCl2, 0.1% PEG, pH 7.4. containing human Thrombin (final conc. of 1 nM). Compound and enzyme were preincubated for 15 min prior to addition of the substrate (final conc. of 100 μM). The reaction was stopped after 30 min with the addition of soybean trypsin inhibitor or H-D-PHE-PRO-ARG-Chloromethylketone. […] To obtain IC50 values the data were analysed using ActivityBase® and XLfit®.
Compounds were diluted from a 10 mM stock solution in dimethylsulfoxide at appropriate concentrations. Assay was performed at room temperature using buffer consisting of: 50 mM HEPES, 150 mM NaCl, 5 mM CaCl2, 0.1% PEG, pH 7.4. containing human Thrombin (final conc. Of 0.2 nM). Compound and enzyme were preincubated for 15 min prior to addition of the substrate (final conc. of 10 μM). The reaction was stopped after 3 hrs with the addition of H-D-PHE-PRO-ARG-Chloromethylketone. […] To obtain IC50 values the data were analysed using ActivityBase® and XLfit®.

SMILES	Ki
CO[C@H](C)[C@@H](C(=O)N1CCOCC1)N1CC[C@H](NS(=O)(=O)/C=C(\C)c2ccc(Cl)s2)C1=O [Example 18, (1E)-2-(5-chlorothien-2-yl)-N-{(3S)-1-[(1S,2R)-2-methoxy-1-(morpholin-4-ylcarbonyl)propyl]-2-oxopyrrolidin-3-yl}prop-1-ene-1-sulfonamide]	< 10 nM
C/C(=C\S(=O)(=O)N[C@H]1CCN([C@H](C(=O)N2CCOCC2)C(C)C)C1=O)c1ccc(Cl)s1 [Example 9, (1E)-2-(5-chlorothien-2-yl)-N-{(3S)-1-[(1S)-2-methyl-1-(morpholin-4-ylcarbonyl)propyl]-2-oxopyrrolidin-3-yl}prop-1-ene-1-sulfonamide]	< 10 nM
CC[C@H](C)[C@@H](C(=O)N1CCOCC1)N1CC[C@H](NS(=O)(=O)CCc2ccc(Cl)cn2)C1=O [Example 48, 2-(5-chloro-2-pyridinyl)-N-{(3S)-1-[(1S,2S)-2-methyl-1-(4-morpholinylcarbonyl)butyl]-2-oxo-3-pyrrolidinyl}ethanesulfonamide]	< 25 nM
O=C([C@H](Cc1ccc(F)cc1)N1CC[C@H](NS(=O)(=O)CCc2ccc(Cl)s2)C1=O)N1CCOCC1 [Example 70, 2-(5-chloro-2-thienyl)-N-{(3S)-1-[(1S)-1-[(4-fluorophenyl)methyl]-2-(4-morpholinyl)-2-oxoethyl]-2-oxo-3-pyrrolidinyl}ethanesulfonamide]	< 50 nM
CCOC[C@@H](C(=O)N1CCOCC1)N1CC[C@H](NS(=O)(=O)/C=C(\C)c2ccc(Cl)s2)C1=O [Example 87, (1E)-2-(5-chloro-2-thienyl)-N-{(3S)-1-[(1S)-1-[(ethyloxy)methyl]-2-(4-morpholinyl)-2-oxoethyl]-2-oxo-3-pyrrolidinyl}-1-propene-1-sulfonamide]	< 10 nM
CC[C@H](C)[C@@H](C(=O)N1CCOCC1)N1CC[C@H](NS(=O)(=O)CC(F)(F)c2ccc(Cl)cc2)C1=O [Example 29, 2-(4-chlorophenyl)-2,2-difluoro-N-{(3S)-1-[(1S,2S)-2-methyl-1-(morpholin-4-ylcarbonyl)butyl]-2-oxopyrrolidin-3-yl}ethanesulfonamide]	< 25 nM
C[C@@H](C(=O)N1CCOCC1)N1CC[C@H](NS(=O)(=O)CC2OCc3cc(Cl)ccc32)C1=O (stereo partly drawn) [Example 66, 1-(5-chloro-1,3-dihydro-2-benzofuran-1-yl)-N-{(3S)-1-[(1S)-1-methyl-2-(4-morpholinyl)-2-oxoethyl]-2-oxo-3-pyrrolidinyl}methanesulfonamide]	< 50 nM
CC[C@@H](C(=O)N1CCOCC1)N1CC[C@H](NS(=O)(=O)/C=C(\C)c2ccc(Cl)s2)C1=O [Example 7, (1E)-2-(5-chlorothien-2-yl)-N-{(3S)-1-[(1S)-1-(morpholin-4-ylcarbonyl)propyl]-2-oxopyrrolidin-3-yl}prop-1-ene-1-sulfonamide]	< 10 nM
C[C@@H](C(=O)N1CCOCC1)N1CC[C@H](NS(=O)(=O)CC(F)(F)c2ccc(Cl)cc2)C1=O [Example 27, 2-(4-chlorophenyl)-2,2-difluoro-N-{(3S)-1-[(1S)-1-methyl-2-morpholin-4-yl-2-oxoethyl]-2-oxopyrrolidin-3-yl}ethanesulfonamide]	< 25 nM
CC(CS(=O)(=O)N[C@H]1CCN([C@@H](C)C(=O)N2CCOCC2)C1=O)c1ccc(Cl)s1 (stereo partly drawn) [Example 54, 2-(5-chloro-2-thienyl)-N-{(3S)-1-[(1S)-1-methyl-2-(4-morpholinyl)-2-oxoethyl]-2-oxo-3-pyrrolidinyl}-1-propanesulfonamide]	< 100 nM
CC[C@H](C)[C@@H](C(=O)N1CCOCC1)N1CC[C@H](NS(=O)(=O)CC(C)c2ccc(Cl)s2)C1=O (stereo partly drawn) [Example 57, 2-(5-chloro-2-thienyl)-N-{(3S)-1-[(1S,2S)-2-methyl-1-(4-morpholinylcarbonyl)butyl]-2-oxo-3-pyrrolidinyl}-1-propanesulfonamide]	< 25 nM
CCOC(=O)CN([C@H]1CCN([C@@H](C)C(=O)N2CCOCC2)C1=O)S(=O)(=O)CCc1ccc(Cl)s1 [Example 34, Ethyl N-{[2-(5-chlorothien-2-yl)ethyl]sulfonyl}-N-{(3S)-1-[(1S)-1-methyl-2-morpholin-4-yl-2-oxoethyl]-2-oxopyrrolidin-3-yl}glycinate]	< 25 nM
O=C([C@H](c1cccs1)N1CC[C@H](NS(=O)(=O)CCc2ccc(Cl)cc2)C1=O)N1CCOCC1 [Example 74, 2-(4-chlorophenyl)-N-{(3S)-1-[(1R)-2-(4-morpholinyl)-2-oxo-1-(2-thienyl)ethyl]-2-oxo-3-pyrrolidinyl}ethanesulfonamide]	< 100 nM
C[C@@H](C(=O)N1CCOCC1)N1CC[C@H](NS(=O)(=O)CCc2ccc(Cl)cc2F)C1=O [Example 25, 2-(4-chloro-2-fluorophenyl)-N-{(3S)-1-[(1S)-1-methyl-2-morpholin-4-yl-2-oxoethyl]-2-oxopyrrolidin-3-yl}ethanesulfonamide]	< 200 nM
CC[C@H](C)[C@@H](C(=O)N1CCOCC1)N1CC[C@H](NS(=O)(=O)CC(O)c2ccc(Cl)cc2)C1=O (stereo partly drawn) [Example 53, 2-(4-chlorophenyl)-2-hydroxy-N-{(3S)-1-[(1S,2S)-2-methyl-1-(4-morpholinylcarbonyl)butyl]-2-oxo-3-pyrrolidinyl}ethanesulfonamide]	< 100 nM
CC[C@@H](C(=O)N1CCOCC1)N1CC[C@H](NS(=O)(=O)CCc2ccc(Cl)s2)C1=O [Example 5, 2-(5-chlorothien-2-yl)-N-{(3S)-1-[(1S)-1-(morpholin-4-ylcarbonyl)propyl]-2-oxopyrrolidin-3-yl}ethanesulfonamide]	< 25 nM
O=C(C[C@@H](C(=O)N1CCOCC1)N1CC[C@H](NS(=O)(=O)CCc2ccc(Cl)s2)C1=O)N1CCOCC1 [Example 31]	< 200 nM
CC[C@H](C)[C@@H](C(=O)N1CCOCC1)N1CC[C@H](N(CC(=O)N(C)C)S(=O)(=O)CCc2ccc(Cl)s2)C1=O [Example 40, N^2-{[2-(5-chlorothien-2-yl)ethyl]sulfonyl)-N^1,N^1-dimethyl-N^2-{(3S)-1-[(1S,2S)-2-methyl-1-(morpholin-4-ylcarbonyl)butyl]-2-oxopyrrolidin-3-yl}glycinamide]	< 10 nM
COC(=O)CN([C@H]1CCN([C@@H](C)C(=O)N2CCOCC2)C1=O)S(=O)(=O)CCc1ccc(Cl)s1 [Example 35, Methyl N-{[2-(5-chlorothien-2-yl)ethyl]sulfonyl}-N-{(3S)-1-[(1S)-1-methyl-2-morpholin-4-yl-2-oxoethyl]-2-oxopyrrolidin-3-yl}glycinate]	< 25 nM
Cn1ncnc1C[C@@H](C(=O)N1CCOCC1)N1CC[C@H](NS(=O)(=O)CCc2ccc(Cl)s2)C1=O [Example 81, 2-(5-chloro-2-thienyl)-N-{(3S)-1-[(1S)-1-[(1-methyl-1H-1,2,4-triazol-5-yl)methyl]-2-(4-morpholinyl)-2-oxoethyl]-2-oxo-3-pyrrolidinyl}ethanesulfonamide]	< 100 nM
COC[C@@H](C(=O)N1CCOCC1)N1CC[C@H](NS(=O)(=O)CCc2ccc(Cl)cn2)C1=O [Example 50, 2-(5-chloro-2-pyridinyl)-N-{(3S)-1-[(1S)-1-[(methyloxy)methyl]-2-(4-morpholinyl)-2-oxoethyl]-2-oxo-3-pyrrolidinyl}ethanesulfonamide]	< 200 nM
COC[C@@H](C(=O)N1CCOCC1)N1CC[C@H](NS(=O)(=O)C[C@@H]2CCc3cc(Cl)ccc32)C1=O [Example 68, 1-[(1R)-5-chloro-2,3-dihydro-1H-inden-1-yl]-N-{(3S)-1-[(1S)-1-[(methyloxy)methyl]-2-(4-morpholinyl)-2-oxoethyl]-2-oxo-3-pyrrolidinyl}methanesulfonamide]	< 50 nM
O=C(O)C[C@@H](C(=O)N1CCOCC1)N1CC[C@H](NS(=O)(=O)CCc2ccc(Cl)s2)C1=O [Example 46]	< 200 nM
C/C(=C\S(=O)(=O)N[C@H]1CCN([C@@H](CC(=O)OCc2ccccc2)C(=O)N2CCOCC2)C1=O)c1ccc(Cl)s1 [Example 22, Benzyl (3S)-3-[(3S)-3-({[(1E)-2-(5-Chlorothien-2-yl)prop-1-enyl]sulfonyl}amino)-2-oxopyrrolidin-1-yl]-4-morpholin-4-yl-4-oxobutanoate]	< 10 nM
O=C(C(c1cccnc1)N1CC[C@H](NS(=O)(=O)CCc2ccc(Cl)s2)C1=O)N1CCOCC1 (mixture of isomers) [Example 92, 2-(5-chloro-2-thienyl)-N-{(3S)-1-[2-(4-morpholinyl)-2-oxo-1-(3-pyridinyl)ethyl]-2-oxo-3-pyrrolidinyl}ethanesulfonamide]	< 50 nM
CC[C@@H](C(=O)N1CCOCC1)N1CC[C@H](NS(=O)(=O)CCc2ccc(Br)cc2)C1=O [Example 26, 2-(4-bromophenyl)-N-{(3S)-1-[(1S)-1-(morpholin-4-ylcarbonyl)propyl]-2-oxopyrrolidin-3-yl}ethanesulfonamide]	< 100 nM
O=C(C(C1CCOCC1)N1CC[C@H](NS(=O)(=O)CCc2ccc(Cl)s2)C1=O)N1CCOCC1 (stereo partly drawn) [Example 67, 2-(5-chloro-2-thienyl)-N-{(3S)-1-[2-(4-morpholinyl)-2-oxo-1-(tetrahydro-2H-pyran-4-yl)ethyl]-2-oxo-3-pyrrolidinyl}ethanesulfonamide]	< 200 nM
C[C@@H](C(=O)N1CCOCC1)N1CC[C@H](NS(=O)(=O)/C=C(\F)c2ccc(Cl)cc2)C1=O [Example 28, (Z)-2-(4-chlorophenyl)-2-fluoro-N-{(3S)-1-[(1S)-1-methyl-2-morpholin-4-yl-2-oxoethyl]-2-oxopyrrolidin-3-yl}ethenesulfonamide]	< 25 nM
